Consider 51 molecules from EP4678634A1, “ANDROGEN RECEPTOR MODULATORS AND USES THEREOF” (Haihe Biopharma Co., Ltd., priority 2023, dated 2024).

The test has as its target T1, Androgen receptor (AR) (Homo sapiens, UniProt P10275).
T1 construct: expressed in transfected cells; host or cells: HEK293T (AR+ARE/Luc)
T1 sequence (P10275 1-920): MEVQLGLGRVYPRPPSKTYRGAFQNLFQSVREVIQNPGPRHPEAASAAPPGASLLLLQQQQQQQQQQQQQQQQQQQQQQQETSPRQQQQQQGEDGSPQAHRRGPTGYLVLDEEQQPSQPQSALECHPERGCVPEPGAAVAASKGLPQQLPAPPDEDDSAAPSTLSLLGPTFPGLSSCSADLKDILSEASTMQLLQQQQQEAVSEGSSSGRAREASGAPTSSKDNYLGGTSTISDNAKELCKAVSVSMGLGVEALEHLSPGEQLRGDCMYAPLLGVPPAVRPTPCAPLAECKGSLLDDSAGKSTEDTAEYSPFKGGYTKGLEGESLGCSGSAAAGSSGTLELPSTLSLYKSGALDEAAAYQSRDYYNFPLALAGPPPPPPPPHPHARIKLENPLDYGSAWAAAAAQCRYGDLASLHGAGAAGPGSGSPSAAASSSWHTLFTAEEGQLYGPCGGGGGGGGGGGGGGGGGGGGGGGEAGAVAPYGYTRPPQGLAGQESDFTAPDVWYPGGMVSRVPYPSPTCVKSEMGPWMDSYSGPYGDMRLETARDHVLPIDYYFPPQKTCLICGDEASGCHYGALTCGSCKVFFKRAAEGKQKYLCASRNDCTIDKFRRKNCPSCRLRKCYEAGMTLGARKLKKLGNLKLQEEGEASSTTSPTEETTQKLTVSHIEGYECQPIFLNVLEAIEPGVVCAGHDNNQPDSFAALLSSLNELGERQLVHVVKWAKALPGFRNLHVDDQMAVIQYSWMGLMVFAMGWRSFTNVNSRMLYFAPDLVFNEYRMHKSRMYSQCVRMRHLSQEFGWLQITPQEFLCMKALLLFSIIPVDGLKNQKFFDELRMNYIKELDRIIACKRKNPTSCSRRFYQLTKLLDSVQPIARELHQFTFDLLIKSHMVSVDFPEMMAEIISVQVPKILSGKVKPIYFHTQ
As to the kind of experiment: Androgen receptor (AR) reporter gene assay (luciferase). The note with it: AR+ARE/Luc HEK293T cells, stimulated with 11-KDHT, 24h incubation, Bright-Lite luminescence; read-out: HEK293 Luc IC50. In kind it is cell-based. Here is the method: Androgen receptor (AR) reporter gene assay
Experimental reagents: 11-Ketodihydrotestosterone (11-KDHT) was purchased from MCE (cat.HY-135794); Enzalutamide (MDV3100) was purchased from Selleck (cat.S1250); Bright-Lite Luciferase Assay kit was purchased from Vazyme (cat.DD1204-01);
• 1. dissolve the described compounds in 100% DMSO at a final concentration of 10 mM. 100 nL each of 400X compound to be tested and 400X 11-KDHT (40 nM) were added to a 384-well assay plate with Echo, followed by 20 µL of complete medium, and centrifuged at 1000 rpm for 1 min, and oscillated for 20-30 min at room temperature. • 2. 20 µL of AR+ARE/Luc HEK293T cells (10,000 cells/well) were inoculated into the assay plate containing the compounds and 11-KDHT, and centrifuged at 1000 rpm for 1 min. The assay plate was incubated in a 37 °C CO2 incubator for 24h. • 3. 40 µL of Bright-Lite assay reagent was transferred to each well of the assay plate, centrifuged at 1000 rpm for 1 min, and shaken for 2 min at room temperature protected from light. Luminescence values (RLU) were measured using Envision. Based on the results, the IC50 values of the compounds described were calculated. Table 1 HEK293-Luc% inhibition IC50 of representative compounds
On the technique in general: Reporter assays use an easily measured gene product as a stand-in for the process of interest.
With `N#Cc1cc2c(c(Cl)c1OCCCl)CCCC2c1ccc2c(c1)C(=O)NC2=O` (stereo not drawn) [HANT-977], the IC50 lay within 1 to 500 nM.

On to `CCCOc1c(C#N)cc2c(c1Cl)CCCC2c1cnc(N)nc1` (stereo not drawn) [HANT-257], for which the IC50 lay in the range of 1 to 500 nM.

Take `N#Cc1cc2c(c(Cl)c1OCCCl)CCCC2c1cncnc1` (stereo not drawn) [HANT-246]: the IC50 was in the range of 1 to 500 nM.

On to `COc1ccc(C2CCCc3c2cc(C#N)c(OCCCl)c3Cl)cn1` (stereo not drawn) [HANT-335], for which the IC50 is 1 to 500 nM.

Take `Cn1ncc2cc(C3CCCc4c3cc(Cl)c(OCCCl)c4Cl)ccc21` (stereo not drawn) [HANT-131]: the IC50 was greater than 2000 nM.

For the molecule `Oc1ccc(C2CCCc3c2cc(Cl)c(OCCCl)c3Cl)cn1` (stereo not drawn) [HANT-101], the IC50 is 1000 to 2000 nM.

`OC1CCN(C2CCCc3c2cc(Cl)c(OCCCl)c3Cl)CC1` (stereo not drawn) [HANT-123]: the IC50 was in the range of 500 to 1000 nM.

Consider `N#Cc1cc2c(c(Cl)c1OCCCl)CCCC2NC(=O)c1cccnc1` (stereo not drawn) [HANT-213], for which the IC50 was 1000 to 2000 nM.

For `CNC(=O)c1n[nH]c2ccc(C3CCCc4c3cc(Cl)c(OCCCl)c4Cl)cc12` (stereo not drawn) [HANT-132, 5-(5,7-dichloro-6-(2-chloroethoxy)-1,2,3,4-tetrahydronaphthalen-1-yl)-N-methyl-1H-indazole-3-carboxamide], the IC50 is greater than 2000 nM.

Take `N#Cc1cc2c(c(Cl)c1OCCCl)CCCC2c1cc2cn[nH]c2cn1` (stereo not drawn) [HANT-149]: the IC50 fell in the range of 1 to 500 nM.

Turning to `N#Cc1ccc(C(=O)NC2CCCc3c2cc(C#N)c(OCCCl)c3Cl)cc1` (stereo not drawn) [HANT-234], the IC50 lay in the range of 1 to 500 nM.

With `Oc1ccc(C2CCCc3c2cc(Cl)c(OCCCl)c3Cl)cc1F` (stereo not drawn) [HANT-109], the IC50 lay within 1000 to 2000 nM.

For `N#Cc1cc2c(c(Cl)c1OCCCl)CCCC2NC(=O)c1ccncc1` (stereo not drawn) [HANT-214], the IC50 fell in the range of 500 to 1000 nM.

On to `N#Cc1cc2c(c(Cl)c1OCCCl)CCCC2c1cnc2[nH]nc(C3CCOCC3)c2c1` (stereo not drawn) [HANT-220, 4-chloro-3-(2-chloroethoxy)-8-(3-(tetrahydro-2H-pyran-4-yl)-1H-pyrazolo[3,4-b]pyridin-5-yl)-5,6,7,8-tetrahydronaphthalene-2-cyanide], for which the IC50 was greater than 2000 nM.

With `N#Cc1cc2c(c(Cl)c1OCCCl)CCCC2c1ccc2oc(=O)[nH]c2c1` (stereo not drawn) [HANT-208], the IC50 was 1 to 500 nM.

With `N#Cc1cc2c(c(Cl)c1OCCCl)CCCC2c1cnc2[nH]ncc2c1` (stereo not drawn) [HANT-150B, 4-chloro-3-(2-chloroethoxy)-8-(1H-pyrazolo[3,4-b]pyridin-5-yl)-5,6,7,8-tetrahydronaphthalene-2-carbonitrile], the IC50 is greater than 2000 nM.

Consider `ClCCOc1c(Cl)cc2c(c1Cl)CCCC2N1CCc2cn[nH]c2C1` (stereo not drawn) [HANT-126], for which the IC50 was 500 to 1000 nM.

For the molecule `N#Cc1cc2c(c(Cl)c1OCCCl)CCCC2NC(=O)c1ccccc1` (stereo not drawn) [HANT-212], the IC50 lay within 1 to 500 nM.

As to `N#Cc1cc2c(c(Cl)c1OCCCl)CCCC2Nc1ccccn1` (stereo not drawn) [HANT-252], the half-inhibitory concentration (IC50) lay in the range of 1 to 500 nM.

In the case of `CNC(=O)c1ccc(NC2CCCc3c2cc(C#N)c(OCCCl)c3Cl)cn1` (stereo not drawn) [HANT-263], the IC50 was 1 to 500 nM.

Take `N#Cc1c2c(cc(Cl)c1OCCCl)C(c1ccc(O)cc1)CCC2` (stereo not drawn) [HANT-106, 3-chloro-2-(2-chloroethoxy)-5-(4-hydroxyphenyl)-5,6,7,8-tetrahydronaphthalene-1-carbonitrile]: the IC50 lay in the range of 1 to 500 nM.

Consider `Cn1ccc(NC2CCCc3c2cc(C#N)c(OCCCl)c3Cl)cc1=O` (stereo not drawn) [HANT-261], for which the IC50 lay within 500 to 1000 nM.

Consider `N#Cc1cc2c(c(Cl)c1OCCCl)CCCC2NC1CCCOC1` (stereo not drawn) [HANT-264], for which the IC50 was greater than 2000 nM.

`COc1ccc(NC2CCCc3c2cc(C#N)c(OCCCl)c3Cl)cn1` (stereo not drawn) [HANT-241]: the IC50 is 1 to 500 nM.

Take `N#Cc1cc2c(c(Cl)c1OCCCl)CCCC2NC(=O)c1cn[nH]c1` (stereo not drawn) [HANT-187]: the IC50 was 1 to 500 nM.

On to `N#Cc1cc2c(c(Cl)c1OCCCl)CCC[C@@H]2c1cnc(N)nc1` [HANT-204A], for which the IC50 is greater than 2000 nM.

With `N#Cc1cc2c(c(Cl)c1OCCCl)CCCC2Nc1ccc(OCCO)nc1` (stereo not drawn) [HANT-122], the IC50 lay within 1 to 500 nM.

For `ClCCOc1c(Cl)cc2c(c1Cl)CCCC2c1ccc2[nH]cnc2c1` (stereo not drawn) [HANT-112], the IC50 was in the range of 500 to 1000 nM.

Regarding `O=c1[nH]c2ccc(C3CCCc4c3cc(Cl)c(OCCCl)c4Cl)cc2o1` (stereo not drawn) [HANT-114], the IC50 was 1 to 500 nM.

Take `N#Cc1cc2c(c(Cl)c1OCCCl)CCCC2c1ccc(N)nc1` (stereo not drawn) [HANT-203]: the concentration for half-maximal inhibition (IC50) was 1 to 500 nM.

`Oc1ccc(C2CCCc3c2cc(Cl)c(OCCCl)c3Cl)nc1` (stereo not drawn) [HANT-102, 6-(5,7-dichloro-6-(2-chloroethoxy)-1,2,3,4-tetrahydronaphthalen-1-yl)pyridin-3-ol]: the IC50 lay in the range of 500 to 1000 nM.

Take `COc1cncc(NC2CCCc3c2cc(C#N)c(OCCCl)c3Cl)c1` (stereo not drawn) [HANT-266]: the IC50 is 1 to 500 nM.

On to `N#Cc1cc2c(c(Cl)c1OCCC(F)(F)F)CCCC2c1cnc2[nH]ncc2c1` (stereo not drawn) [HANT-171], for which the IC50 was in the range of 1000 to 2000 nM.

Take `O=C1Cc2cc(C3CCCc4c3cc(Cl)c(OCCCl)c4Cl)ccc2N1` (stereo not drawn) [HANT-135]: the IC50 lay within 1 to 500 nM.

As for `N#Cc1cc2c(c(Cl)c1OCCCl)CCCC2c1cncc(N)c1` (stereo not drawn) [HANT-256], the IC50 is 1000 to 2000 nM.

As to `Oc1ccc2c(c1)CCN(C1CCCc3c1cc(Cl)c(OCCCl)c3Cl)C2` (stereo not drawn) [HANT-124, 2-(5,7-dichloro-6-(2-chloroethoxy)-1,2,3,4-tetrahydronaphthalen-1-yl)-1,2,3,4-tetrahydroisoqui nolin-6-ol], the IC50 is greater than 2000 nM.

For the molecule `N#Cc1cc2c(c(Cl)c1OCCCl)CCCC2c1cc2c3c(cccc3c1)NC2=O` (stereo not drawn) [HANT-979, 4-Chloro-3-(2-chloroethoxy)-8-(2-oxo-1,2-dihydrobenzo[cd]indol-4-yl)-5,6,7,8-tetrahydronapht halene-2-carbonitrile], the IC50 was 500 to 1000 nM.

Take `Cn1nc(C2CCCc3c2cc(C#N)c(OCCCl)c3Cl)c2ccccc21` (stereo not drawn) [HANT-949]: the half-maximal inhibitory concentration (IC50) was 1000 to 2000 nM.

For `N#Cc1cc2c(c(Cl)c1OCCCl)CCCC2c1cnc(N)nc1` (racemic) [HANT-204], the half-inhibitory concentration (IC50) lay in the range of 1 to 500 nM.

As to `N#Cc1cc2c(c(Cl)c1OCCCl)CCCC2NC(=O)c1ccccn1` (stereo not drawn) [HANT-215], the IC50 was in the range of 1 to 500 nM.

Regarding `N#Cc1cc2c(c(Cl)c1OCCCl)CCCC2c1cccnc1` (stereo not drawn) [HANT-255], the IC50 lay within 1 to 500 nM.

Take `N#Cc1cc2c(c(Cl)c1OCCCl)CCCC2c1cnc2[nH]c(=O)ccc2c1` (stereo not drawn) [HANT-202]: the IC50 lay in the range of 1 to 500 nM.

On to `COc1ccc(C(=O)NC2CCCc3c2cc(C#N)c(OCCCl)c3Cl)cc1` (stereo not drawn) [HANT-235], for which the IC50 is 500 to 1000 nM.

For the molecule `CNC(=O)c1cc2c(c(Cl)c1OCCCl)CCCC2c1cnc2[nH]ncc2c1` (stereo not drawn) [HANT-183, 4-chloro-3-(2-chloroethoxy)-N-methyl-8-(1H-pyrazolo[3,4-b]pyridin-5-yl)-5,6,7,8-tetrahydrona phthalene-2-carboxamide], the IC50 fell in the range of 1000 to 2000 nM.

Take `CC(=O)Nc1ccc(C2CCCc3c2cc(C#N)c(OCCCl)c3Cl)cn1` (stereo not drawn) [HANT-205]: the IC50 fell in the range of 1 to 500 nM.

For the molecule `N#Cc1cc2c(c(Cl)c1OCCCl)CCCC2c1cnc2[nH]nc(-c3ccncc3)c2c1` (stereo not drawn) [HANT-218, 4-chloro-3-(2-chloroethoxy)-8-(3-(pyridin-4-yl)-1H-pyrazolo[3,4-b]pyridin-5-yl)-5,6,7,8-tetrah ydronaphthalene-2-carbonitrile], the IC50 was in the range of 1 to 500 nM.

`N#Cc1cc2c(c(Cl)c1OCCCl)CCCC2Nc1ccncc1` (stereo not drawn) [HANT-228]: the IC50 was greater than 2000 nM.

Consider `CNc1ncc(C2CCCc3c2cc(C#N)c(OCCCl)c3Cl)cn1` (stereo not drawn) [HANT-247, 4-chloro-3-(2-chloroethoxy)-8-(2-(methylamino)pyrimidin-5-yl)-5,6,7,8-tetrahydronaphthalene-2-carbonitrile], for which the IC50 was in the range of 1 to 500 nM.

As for `CN1CCc2c(cc(Cl)c(OCCCl)c2Cl)C1c1ccc(O)cc1` (stereo not drawn) [HANT-115, 4-(5,7-dichloro-6-(2-chloroethoxy)-2-methyl-1,2,3,4-tetrahydroisoquinolin-1-yl)phenol], the IC50 lay within 1 to 500 nM.

For the molecule `N#Cc1cc2c(c(Cl)c1OCCCl)CCCC2Nc1cc[nH]n1` (stereo not drawn) [HANT-175], the IC50 lay within 1000 to 2000 nM.

With `N#Cc1cc2c(c(Cl)c1OCCCl)CCCC2Nc1ccccc1` (stereo not drawn) [HANT-226], the IC50 is 1 to 500 nM.

One may read the IC50 as the concentration needed to halve the response being measured.
